From patent US11702422B2, “Imidazopyridazines as modulators of IL-17” (Janssen Pharmaceutica NV, priority 2020, dated 2023)

Columns and labels:
[1] = target: IL-17A(FLAG-Tagged): IL-17RA(His-Tagged) (Homo sapiens, UniProt Q16552, K93Q); assay: IL-17A(FLAG-Tagged): IL-17RA(His-Tagged) Binding Disruption Eu-HTRF Assay; settings: IL-17A/IL-17RA binding disruption, simple average if tested more than once
Outline: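 IC50 comes from a one-site competition fit of the HTRF 665/620 nm ratio. Compound dilutions (2-fold, 22 points) were held 1 h rt with FLAG-tagged IL-17A dimer, then His-tagged IL-17RA plus Eu-cryptate anti-FLAG and D2 anti-His antibodies were added for 2 h rt.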

[2] = tested on: IL-17A-induced G-CSF production in human normal keratinocyte (NHK); assay: NHK Assay: IL-17A-induced G-CSF production in human normal keratinocytes; assay type: cell-based; settings: Homo sapiens, Keratinocyte, 24 h, adult normal human keratinocytes, IL-17A 5 ng/mL, simple average if tested more than once
Outline: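 Adult NHK, 3000-4000 cells/well; rhIL-17A + titrated cpd preincubated 1 h rt, then onto cells. Final: IL-17A 5 ng/mL, DMSO 0.2%, 5% FBS. 24 h, 37° C. G-CSF in supernatant by HTRF vs standard curve; IC50. Viability by CellTiter-Glo vs DMSO.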

Sequence of UniProt Q16552 (Q16552 with tags, fused parts or gaps K93Q): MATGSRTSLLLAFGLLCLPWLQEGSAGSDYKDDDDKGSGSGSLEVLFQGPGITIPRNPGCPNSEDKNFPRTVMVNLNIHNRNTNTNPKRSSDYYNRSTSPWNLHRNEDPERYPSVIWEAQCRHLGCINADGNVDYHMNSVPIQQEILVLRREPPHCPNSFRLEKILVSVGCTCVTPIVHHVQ

Structure (SMILES) | IC50 [1] [µM] | IC50 [2] [µM]
CO[C@@H](C)[C@@H](NC(=O)CC1CC(F)(F)C1)c1cnn2cc([C@@H](NC(=O)c3ccnn3C(C)C)C3CCC(F)(F)CC3)nc2c1 [Example 322, N—((S)-(7-((1S,2S)-1-(2-(3,3-Difluorocyclobutyl)acetamido)-2-methoxypropyl)imidazo[1,2-b]pyridazin-2-yl)(4,4-difluorocyclohexyl)methyl)-1-isopropyl-1H-pyrazole-5-carboxamide] | 0.31 | 0.096
CO[C@@H](C)[C@@H](NC(=O)CC1CC(F)(F)C1)c1cnn2cc([C@@H](NC(=O)c3nonc3C)C3CCC(F)(F)CC3)nc2c1 [Example 323, N—((S)-(7-((1S,2S)-1-(2-(3,3-Difluorocyclobutyl)acetamido)-2-methoxypropyl)imidazo[1,2-b]pyridazin-2-yl)(4,4-difluorocyclohexyl)methyl)-4-methyl-1,2,5-oxadiazole-3-carboxamide] | 0.12 | 0.67
Cc1nonc1C(=O)N[C@H](c1cn2ncc([C@H](NC(=O)CCCC(F)F)C3CC3)cc2n1)C1CCC(F)(F)CC1 [Example 326, N—((S)-(7-((R)-Cyclopropyl(5,5-difluoropentanamido)methyl)imidazo[1,2-b]pyridazin-2-yl)(4,4-difluorocyclohexyl)methyl)-4-methyl-1,2,5-oxadiazole-3-carboxamide] | 0.12 | 1.1
Cc1nonc1C(=O)N[C@H](c1cn2ncc([C@H](NC(=O)COCC(F)(F)F)C3CC3)cc2n1)C1CCC(F)(F)CC1 [Example 327, N—((S)-(7-((R)-Cyclopropyl(2-(2,2,2-trifluoroethoxy)acetamido)methyl)imidazo[1,2-b]pyridazin-2-yl)(4,4-difluorocyclohexyl)methyl)-4-methyl-1,2,5-oxadiazole-3-carboxamide] | 0.2 | 0.89
Cc1nonc1C(=O)N[C@H](c1cn2ncc([C@H](NC(=O)C(C)(C)CC(F)F)C3CC3)cc2n1)C1CCC(F)(F)CC1 [Example 328, N—((S)-(7-((R)-Cyclopropyl(4,4-difluoro-2,2-dimethylbutanamido)methyl)imidazo[1,2-b]pyridazin-2-yl)(4,4-difluorocyclohexyl)methyl)-4-methyl-1,2,5-oxadiazole-3-carboxamide] | 2.4 | > 20
Cc1nonc1C(=O)N[C@H](c1cn2ncc([C@H](NC(=O)CO[C@@H](C)C(F)(F)F)C3CC3)cc2n1)C1CCC(F)(F)CC1 [Example 333, N—((S)-(7-((R)-Cyclopropyl(2-(((S)-1,1,1-trifluoropropan-2-yl)oxy)acetamido)methyl)imidazo[1,2-b]pyridazin-2-yl)(4,4-difluorocyclohexyl)methyl)-4-methyl-1,2,5-oxadiazole-3-carboxamide] | 0.18 | 0.62
CCC(F)(F)CC(=O)N[C@@H](c1cnn2cc([C@@H](NC(=O)c3nonc3C)C3CCC(F)(F)CC3)nc2c1)C1CC1 [Example 338, N—((S)-(7-((R)-Cyclopropyl(3,3-difluoropentanamido)methyl)imidazo[1,2-b]pyridazin-2-yl)(4,4-difluorocyclohexyl)methyl)-4-methyl-1,2,5-oxadiazole-3-carboxamide] | 0.36 | 2
Cc1nonc1C(=O)N[C@H](c1cn2ncc([C@H](NC(=O)C(F)(F)CC3CC3)C3CC3)cc2n1)C1CCC(F)(F)CC1 [Example 339, N—((S)-(7-((R)-Cyclopropyl(3-cyclopropyl-2,2-difluoropropanamido)methyl)imidazo[1,2-b]pyridazin-2-yl)(4,4-difluorocyclohexyl)methyl)-4-methyl-1,2,5-oxadiazole-3-carboxamide] | 0.077 | 0.19
Cc1nonc1C(=O)N[C@H](c1cn2ncc([C@H](NC(=O)CO[C@H](C)C(F)(F)F)C3CC3)cc2n1)C1CCC(F)(F)CC1 [Example 357, N—((S)-(7-((R)-Cyclopropyl(2-(((R)-1,1,1-trifluoropropan-2-yl)oxy)acetamido)methyl)imidazo[1,2-b]pyridazin-2-yl)(4,4-difluorocyclohexyl)methyl)-4-methyl-1,2,5-oxadiazole-3-carboxamide] | 0.95 | 2.5
Nc1nonc1C(=O)N[C@H](c1cn2ncc([C@H](NC(=O)CCC(F)(F)F)C3CC3)cc2n1)C1CCC(F)(F)CC1 [Example 370, 4-Amino-N—((S)-(7-((R)-cyclopropyl(4,4,4-trifluorobutanamido)methyl)imidazo[1,2-b]pyridazin-2-yl)(4,4-difluorocyclohexyl)methyl)-1,2,5-oxadiazole-3-carboxamide] | 0.14 | 0.47
CC(C)(O)c1nonc1C(=O)N[C@H](c1cn2ncc([C@H](NC(=O)CCC(F)(F)F)C3CC3)cc2n1)C1CCC(F)(F)CC1 [Example 371, N—((S)-(7-((R)-Cyclopropyl(4,4,4-trifluorobutanamido)methyl)imidazo[1,2-b]pyridazin-2-yl)(4,4-difluorocyclohexyl)methyl)-4-(2-hydroxypropan-2-yl)-1,2,5-oxadiazole-3-carboxamide] | 0.14 | 0.45
COc1conc1C(=O)N[C@H](c1cn2ncc([C@H](NC(=O)CCC(F)(F)F)C3CC3)cc2n1)C1CCC(F)(F)CC1 [Example 372, N—((S)-(7-((R)-Cyclopropyl(4,4,4-trifluorobutanamido)methyl)imidazo[1,2-b]pyridazin-2-yl)(4,4-difluorocyclohexyl)methyl)-4-methoxyisoxazole-3-carboxamide] | 0.12 | 0.74
CCOc1conc1C(=O)N[C@H](c1cn2ncc([C@H](NC(=O)CCC(F)(F)F)C3CC3)cc2n1)C1CCC(F)(F)CC1 [Example 373, N—((S)-(7-((R)-Cyclopropyl(4,4,4-trifluorobutanamido)methyl)imidazo[1,2-b]pyridazin-2-yl)(4,4-difluorocyclohexyl)methyl)-4-ethoxyisoxazole-3-carboxamide] | 0.062 | 0.24
CC(C)Oc1conc1C(=O)N[C@H](c1cn2ncc([C@H](NC(=O)CCC(F)(F)F)C3CC3)cc2n1)C1CCC(F)(F)CC1 [Example 374, N—((S)-(7-((R)-Cyclopropyl(4,4,4-trifluorobutanamido)methyl)imidazo[1,2-b]pyridazin-2-yl)(4,4-difluorocyclohexyl)methyl)-4-isopropoxyisoxazole-3-carboxamide] | 0.046 | 0.24
O=C(CCC(F)(F)F)N[C@@H](c1cnn2cc([C@@H](NC(=O)c3nocc3OCC(F)F)C3CCC(F)(F)CC3)nc2c1)C1CC1 [Example 375, N—((S)-(7-((R)-Cyclopropyl(4,4,4-trifluorobutanamido)methyl)imidazo[1,2-b]pyridazin-2-yl)(4,4-difluorocyclohexyl)methyl)-4-(2,2-difluoroethoxy)isoxazole-3-carboxamide] | 0.043 | 0.17
O=C(CCC(F)(F)F)N[C@@H](c1cnn2cc([C@@H](NC(=O)c3nocc3OCCF)C3CCC(F)(F)CC3)nc2c1)C1CC1 [Example 376, N—((S)-(7-((R)-Cyclopropyl(4,4,4-trifluorobutanamido)methyl)imidazo[1,2-b]pyridazin-2-yl)(4,4-difluorocyclohexyl)methyl)-4-(2-fluoroethoxy)isoxazole-3-carboxamide] | 0.079 | 0.28
O=C(CCC(F)(F)F)N[C@@H](c1cnn2cc([C@@H](NC(=O)c3nocc3CC(F)(F)F)C3CCC(F)(F)CC3)nc2c1)C1CC1 [Example 377, N—((S)-(7-((R)-Cyclopropyl(4,4,4-trifluorobutanamido)methyl)imidazo[1,2-b]pyridazin-2-yl)(4,4-difluorocyclohexyl)methyl)-4-(2,2,2-trifluoroethyl)isoxazole-3-carboxamide] | 0.06 | 0.085
CC(C)c1conc1C(=O)N[C@H](c1cn2ncc([C@H](NC(=O)CCC(F)(F)F)C3CC3)cc2n1)C1CCC(F)(F)CC1 [Example 378, N—((S)-(7-((R)-Cyclopropyl(4,4,4-trifluorobutanamido)methyl)imidazo[1,2-b]pyridazin-2-yl)(4,4-difluorocyclohexyl)methyl)-4-isopropylisoxazole-3-carboxamide] | 0.055 | 0.095
CC(C)c1nonc1C(=O)N[C@H](c1cn2ncc([C@H](NC(=O)CCC(F)(F)F)C3CC3)cc2n1)C1CCC(F)(F)CC1 [Example 379, N—((S)-(7-((R)-Cyclopropyl(4,4,4-trifluorobutanamido)methyl)imidazo[1,2-b]pyridazin-2-yl)(4,4-difluorocyclohexyl)methyl)-4-isopropyl-1,2,5-oxadiazole-3-carboxamide] | 0.017 | 0.03
O=C(CCC(F)(F)F)N[C@@H](c1cnn2cc([C@@H](NC(=O)c3nonc3OC3CC3)C3CCC(F)(F)CC3)nc2c1)C1CC1 [Example 380, 4-Cyclopropoxy-N—((S)-(7-((R)-cyclopropyl(4,4,4-trifluorobutanamido)methyl)imidazo[1,2-b]pyridazin-2-yl)(4,4-difluorocyclohexyl)methyl)-1,2,5-oxadiazole-3-carboxamide] | 0.048 | 0.03
O=C(CCC(F)(F)F)N[C@@H](c1cnn2cc([C@@H](NC(=O)c3nonc3C3CC3)C3CCC(F)(F)CC3)nc2c1)C1CC1 [Example 381, 4-Cyclopropyl-N—((S)-(7-((R)-cyclopropyl(4,4,4-trifluorobutanamido)methyl)imidazo[1,2-b]pyridazin-2-yl)(4,4-difluorocyclohexyl)methyl)-1,2,5-oxadiazole-3-carboxamide] | 0.027 | 0.031
